Reference: paper PMC8600295, “Inhibition of iduronic acid biosynthesis by ebselen reduces glycosaminoglycan accumulation in mucopolysaccharidosis type I fibroblasts” (Glycobiology, 2021)

Columns and labels:
Assay type in all cases: biochemical
DS-epi1 (DS-epimerase 1) = target: T1, DS-epi1 (DS-epimerase 1) (Homo sapiens, UniProt Q9UL01); experiment: epimerase activity assay (3H release from [[…]-3H]dK4) with recombinant enzyme; dialysis irreversibility test; Lineweaver-Burk kinetics
T1 construct: gene DSE; truncated form (amino acid 23–775-HIS)

[1] = target: T2, HSepi (heparan sulfate glucuronyl C5-epimerase) (Homo sapiens, UniProt O94923); experiment: epimerase activity assay (3H release from [[…]-3H]-N-sulfated K5 polysaccharide) with recombinant enzyme
T2 construct: gene GLCE; full-length, myc-HIS fusion
T2 sequence (O94923 1-617): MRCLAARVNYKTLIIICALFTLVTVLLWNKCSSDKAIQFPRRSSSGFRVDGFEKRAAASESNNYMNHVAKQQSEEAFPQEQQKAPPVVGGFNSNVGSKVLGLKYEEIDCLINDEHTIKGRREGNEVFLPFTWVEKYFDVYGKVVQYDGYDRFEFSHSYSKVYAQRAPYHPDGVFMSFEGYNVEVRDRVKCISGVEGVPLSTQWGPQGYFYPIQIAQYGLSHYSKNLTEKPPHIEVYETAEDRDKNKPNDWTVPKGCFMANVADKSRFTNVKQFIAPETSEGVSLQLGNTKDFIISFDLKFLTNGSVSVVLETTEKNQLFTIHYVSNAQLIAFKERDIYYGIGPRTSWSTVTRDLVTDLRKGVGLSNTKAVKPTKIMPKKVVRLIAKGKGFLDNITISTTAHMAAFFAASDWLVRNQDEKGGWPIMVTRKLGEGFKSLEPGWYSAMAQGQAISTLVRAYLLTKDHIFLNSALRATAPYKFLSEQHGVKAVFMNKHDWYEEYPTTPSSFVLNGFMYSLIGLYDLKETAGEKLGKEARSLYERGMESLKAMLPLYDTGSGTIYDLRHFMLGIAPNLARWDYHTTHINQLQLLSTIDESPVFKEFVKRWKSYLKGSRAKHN

[2] = target: T3, D4ST1 (DS 4-O-sulfotransferase 1) (Homo sapiens, UniProt Q8NCH0); experiment: sulfotransferase activity assay ([…]PAPS incorporation) with recombinant enzyme
T3 construct: gene CHST14; D4ST1-HIS (amino acid 61–376)
T3 sequence (Q8NCH0 61-376): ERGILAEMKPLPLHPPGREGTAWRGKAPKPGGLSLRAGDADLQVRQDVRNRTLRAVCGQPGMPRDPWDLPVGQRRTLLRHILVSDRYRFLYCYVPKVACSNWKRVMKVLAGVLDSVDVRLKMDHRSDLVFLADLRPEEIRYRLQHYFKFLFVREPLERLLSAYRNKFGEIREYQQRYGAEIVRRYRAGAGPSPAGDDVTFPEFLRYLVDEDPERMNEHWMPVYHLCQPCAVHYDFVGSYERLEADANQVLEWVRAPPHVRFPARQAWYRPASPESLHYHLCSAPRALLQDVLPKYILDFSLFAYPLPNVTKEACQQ

O=c1c2ccccc2[se]n1-c1ccccc1 [ebselen, 2-phenyl-1,2-benzoisoselenazol-3(2H)-one]
IC50 (DS-epi1 (DS-epimerase 1)): 7 µM | IC50 [1]: 0.8 µM | IC50 [2]: 1.5 µM
